Measured values taken from ChEMBL document CHEMBL1671852, “In vitro activities of linezolid against clinical isolates of Mycobacterium tuberculosis complex isolated in Taiwan over 10 years” (2008).
Values after ≈ are worked out from the molar mass of the structure shown.

Tests used:
[1] = tested on: Mycobacterium tuberculosis; test: Antibacterial activity against multidrug-resistant Mycobacterium tuberculosis harboring gyrA D94A mutation by agar proportion method; assay type: functional
[2] = tested on: Mycobacterium tuberculosis; test: Antibacterial activity against multidrug-resistant Mycobacterium tuberculosis by agar proportion method; assay type: functional

Q: What does the source list for `CC(=O)NC[C@H]1CN(c2ccc(N3CCOCC3)c(F)c2)C(=O)O1` [LINEZOLID]?
A: MIC [1]: 4 µg/mL (≈ 11.9 µM); MIC50 [2]: 0.5 µg/mL (≈ 1.48 µM); MIC90 [2]: 0.5 µg/mL (≈ 1.48 µM)
